From patent publication US9353090B2, “Heterocyclic carboxylic acids as activators of soluble guanylate cyclase” (Boehringer Ingelheim International GmbH, priority 2014, dated 2016)
≈ marks a conversion by molar mass, not a printed value.

What was measured:
[1] = Human liver microsome (HLM) metabolic stability assay; type: in vitro ADME; settings: human liver microsomes
Outline: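 Compound at 1 uM incubated with human liver microsomes at 37° C. for 60 min after NADPH addition. Aliquots quenched in cold acetonitrile at 0, 5, 15, 30 and 60 min and analysed by LC/MS/MS. t1/2 from ln(% remaining) vs time slope; CLint, CLh and % Qh derived from it (n=1).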

[2] = target: human soluble guanylate cyclase alpha 1 and beta 1 subunits (sGC) (Homo sapiens (Human), UniProt Q02108+Q02153); assay: sGC cellular activator assay (cGMP, HTRF), in the presence and absence of 50% human serum; type: cell-based; settings: CHO cells stably expressing human sGC alpha 1/beta 1, preincubated with 40 microM ODQ; cGMP by HTRF; Table 2 does not state whether with or without 50% human serum
Sequence of human soluble guanylate cyclase alpha 1 and beta 1 subunits (sGC) (Q02108 whole entry partner): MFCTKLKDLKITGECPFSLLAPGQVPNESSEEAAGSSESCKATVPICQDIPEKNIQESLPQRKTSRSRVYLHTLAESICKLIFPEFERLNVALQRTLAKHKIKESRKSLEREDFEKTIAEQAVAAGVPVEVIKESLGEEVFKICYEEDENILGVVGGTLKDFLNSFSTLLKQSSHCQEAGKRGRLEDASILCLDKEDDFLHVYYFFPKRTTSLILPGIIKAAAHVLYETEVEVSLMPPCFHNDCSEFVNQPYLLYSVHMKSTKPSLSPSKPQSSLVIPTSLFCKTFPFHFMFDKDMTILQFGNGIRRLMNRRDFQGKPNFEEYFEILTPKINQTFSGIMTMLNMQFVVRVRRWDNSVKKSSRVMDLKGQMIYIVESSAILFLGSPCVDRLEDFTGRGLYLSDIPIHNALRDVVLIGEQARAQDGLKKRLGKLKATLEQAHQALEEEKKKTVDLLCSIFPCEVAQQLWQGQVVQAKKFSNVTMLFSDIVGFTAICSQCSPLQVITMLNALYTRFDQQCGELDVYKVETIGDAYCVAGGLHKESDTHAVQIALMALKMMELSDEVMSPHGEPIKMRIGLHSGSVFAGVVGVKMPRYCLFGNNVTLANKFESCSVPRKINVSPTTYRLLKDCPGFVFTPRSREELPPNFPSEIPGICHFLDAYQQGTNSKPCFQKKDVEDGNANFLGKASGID
Sequence of human soluble guanylate cyclase alpha 1 and beta 1 subunits (sGC) (Q02153 whole entry): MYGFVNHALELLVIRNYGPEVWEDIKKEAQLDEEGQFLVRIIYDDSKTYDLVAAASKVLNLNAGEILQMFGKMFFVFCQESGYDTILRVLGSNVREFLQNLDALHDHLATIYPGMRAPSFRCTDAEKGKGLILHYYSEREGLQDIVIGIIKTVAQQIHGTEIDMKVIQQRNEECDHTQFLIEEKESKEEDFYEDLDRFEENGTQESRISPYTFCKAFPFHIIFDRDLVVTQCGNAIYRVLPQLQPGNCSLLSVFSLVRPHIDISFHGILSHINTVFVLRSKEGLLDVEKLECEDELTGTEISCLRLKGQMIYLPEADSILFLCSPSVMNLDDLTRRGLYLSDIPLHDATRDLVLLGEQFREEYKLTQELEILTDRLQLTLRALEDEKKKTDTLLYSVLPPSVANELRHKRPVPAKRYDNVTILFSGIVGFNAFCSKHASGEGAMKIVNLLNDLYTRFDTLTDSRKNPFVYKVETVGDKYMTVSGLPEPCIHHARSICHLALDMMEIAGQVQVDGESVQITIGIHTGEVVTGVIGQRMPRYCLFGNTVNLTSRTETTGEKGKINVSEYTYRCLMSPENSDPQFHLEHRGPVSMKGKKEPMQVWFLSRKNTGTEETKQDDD
Outline: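 Heme-oxidized conditions: ODQ (40 microM, 1 h) pretreatment of CHO cells stably expressing human α1/β1 sGC, in buffer containing 0.1% BSA and IBMX.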

physchem = settings: kinetic from dmso stock
Experimental: Solubility is measured by the following method.
100 uL, 10 mM DMSO stock solution of each compound is prepared in a 96 well plate format. The experiment is done in single determination at 3 pH values (2.2, 4.5 and 6.8). For each pH and one reference, 40 uL of each compound is needed.
McIlvaine pH 2.2: To 2.076 g citric acid monohydrate and 0.043 g Na2HPO4×2H2O add 100 ml deionized water
McIlvaine pH 4.5: To 1.166 g citric acid monohydrate and 1.585 g Na2HPO4×2H2O add 100 ml deionized water
McIlvaine pH 6.8: To 0.476 g citric acid monohydrate and 2.753 g Na2HPO4×2H2O add 100 ml deionized water
With a suitable liquid handling device (Multipette® or a liquid handler) 390 uL of each buffer solution and 10 uL of compound is added to each well of a 96 deep well plate. The plates are covered firmly and shaken for 24 h on an over head shaker (at 54 RPM) at room temperature. The DMSO content in the final buffer is 2.5% v/v.
After 24 h the plates are centrifuged to remove droplets on the lid before opening (for ˜5 min at 2500 RPM).
The filtration is done under vacuum with Millipore 96 well filter plate. Filtrate is collected in a deep well plate and transferred to a suitable plate for UPLC analysis.
The reference plate is prepared by adding 10 uL of compound to 390 uL of 50:50 acetonitrile/water in a 96 deep well plate and transferred to a suitable plate for UPLC analysis. Wells are checked visually for precipitation, any presence noted under comments in reported results.
The samples are measured with UPLC-UV using the chromatographic method described below.
Waters Empower®2 software is used for generating Sample Sets (according to the plate layout), Sample Set Methods and Instrument Methods.
One Sample Set comprises the methods for three 96 well plates (one reference plate and two sample plates, and includes one Sample Set Method and one Instrument Method).
Data Processing and Analysis
The UV chromatograms collected at 254 nm are integrated and processed.
It is assumed that the compound is completely dissolved in the reference solution (50:50 acetonitrile/water)

[3] = pH 2.2, aqueous buffer, Solubility (pH 2.2)
[4] = pH 4.5, aqueous buffer, Solubility (pH 4.5)
[5] = pH 6.8, aqueous buffer, Solubility (pH 6.8)

Compound	Metabolic stability (Qh %), % hepatic blood flow [1] [%]	EC50 [2] [nM]	solubility at 24 h (physchem; [3]) [µg/mL]	solubility at 24 h (physchem; [4]) [µg/mL]	solubility at 24 h (physchem; [5]) [µg/mL]
Cc1ccc(OCc2ccc3c(c2C)CCN(C2CCOCC2)C3)c(-c2csc(N3CC[C@@]4(C(=O)O)C[C@H]4C3)n2)c1 [Compound 115]	<24	11	130 (≈ 227 µM)	36 (≈ 62.7 µM)	5.1 (≈ 8.89 µM)
Cc1c(COc2ccccc2-c2cccc(N3CC[C@@]4(C(=O)O)C[C@H]4C3)n2)ccc2c1CCN(C1COC1)C2 [Compound 4]	<24	4	140 (≈ 266 µM)	120 (≈ 228 µM)	65 (≈ 124 µM)
Cc1ccc(OCc2ccc3c(c2C)CCN(CC2COCCO2)C3)c(-c2csc(N3CC[C@@]4(C(=O)O)C[C@H]4C3)n2)c1 (stereo partly drawn) [Compound 117]	27	2	120 (≈ 203 µM)	42 (≈ 71.2 µM)	3.4 (≈ 5.77 µM)
Cc1cc(COc2c(C)cccc2-c2csc(N3C[C@@H]4C[C@]4(C(=O)O)C3)n2)cc2c1CN(C1COC1)CC2 [Compound 139]	<24	7	96 (≈ 181 µM)	58 (≈ 109 µM)	59 (≈ 111 µM)
CO[C@@H]1CN(c2cccc(-c3cccc(C)c3OCc3ccc4c(c3C)CCN(C3CCOCC3)C4)n2)CC[C@@H]1C(=O)O [Compound 68]	<24	14	140 (≈ 239 µM)	120 (≈ 205 µM)	93 (≈ 159 µM)
Cc1cccc(-c2csc(N3C[C@@H]4C[C@]4(C(=O)O)C3)n2)c1OCc1cc(C#N)c2c(c1)CCN(C1CCOCC1)C2 [Compound 142]	<24	23	110 (≈ 193 µM)	69 (≈ 121 µM)	69 (≈ 121 µM)

Other lines, results leading:

Metabolic stability (Qh %), % hepatic blood flow [1] [%]	EC50 [2] [nM]	solubility at 24 h (physchem; [3]) [µg/mL]	solubility at 24 h (physchem; [4]) [µg/mL]	solubility at 24 h (physchem; [5]) [µg/mL]	Compound
<24	25	130 (≈ 221 µM)	43.6 (≈ 73.9 µM)	10.5 (≈ 17.8 µM)	COc1ccc(OCc2ccc3c(c2C)CCN(C2CCOCC2)C3)c(-c2csc(N3CC[C@@]4(C(=O)O)C[C@H]4C3)n2)c1 [Compound 200]
<24	4	112 (≈ 183 µM)	109 (≈ 179 µM)	109 (≈ 178 µM)	CCO[C@@H]1CN(c2nc(-c3cccc(C)c3OCc3cc(F)c4c(c3)CCN(C3CCOCC3)C4)cs2)CC[C@@H]1C(=O)O [Compound 238]
<24	16	139 (≈ 228 µM)	88.9 (≈ 145 µM)	77.1 (≈ 126 µM)	CO[C@@H]1CN(c2nc(-c3cccc(Cl)c3OCc3ccc4c(c3C)CCN(C3CCOCC3)C4)cs2)CC[C@@H]1C(=O)O [Compound 208]
25	3	133 (≈ 215 µM)	94.9 (≈ 154 µM)	67.4 (≈ 109 µM)	COC[C@H]1N(c2cccc(-c3cccc(C)c3OCc3ccc4c(c3F)CCN(C3CCOCC3)CC4)n2)C[C@@H]2C[C@@]21C(=O)O [Compound 262]
<24	1	141 (≈ 241 µM)	105 (≈ 180 µM)	91.1 (≈ 156 µM)	CO[C@@H]1CN(c2cccc(-c3cccc(C)c3OCc3ccc4c(c3C)CCN([C@H]3CCOC3)CC4)n2)CC[C@@H]1C(=O)O [Compound 301]
<24	53	130 (≈ 214 µM)	87 (≈ 143 µM)	81 (≈ 133 µM)	CO[C@H]1CN(c2nc(-c3cccc(C)c3OCc3cc(C)c4c(c3)CCN(CC3COCCO3)C4)cs2)CC[C@H]1C(=O)O (stereo partly drawn) [Compound 168]
<24	2	128 (≈ 224 µM)	84.7 (≈ 148 µM)	62.3 (≈ 109 µM)	CO[C@@H]1CN(c2cccc(-c3cccc(C)c3OCc3cc(C)c4c(c3)CCN(C3COC3)CC4)n2)CC[C@@H]1C(=O)O [Compound 291]
<24	108	120 (≈ 199 µM)	75 (≈ 124 µM)	59 (≈ 97.7 µM)	COC[C@H]1N(c2nc(-c3cc(C)ccc3OCc3ccc4c(c3C)CCN(C3CCOCC3)C4)cs2)C[C@@H]2C[C@@]21C(=O)O [Compound 164]
24	3	117 (≈ 205 µM)	114 (≈ 199 µM)	107 (≈ 187 µM)	CO[C@@H]1CN(c2cccc(-c3cccc(C)c3OCc3ccc4c(c3C)CCN(C3COC3)CC4)n2)CC[C@@H]1C(=O)O [Compound 196]
